Here are results for 26 compounds from patent US11186564B2, “Dual NAV1.2/5HT2a inhibitors for treating CNS disorders” (Sunovion Pharmaceuticals Inc., priority 2016, dated 2021).

Test [1] has as its target human sodium channel NaV1.2 (Homo sapiens, UniProt Q99250). Briefly: NaV1.2 inhibition, automated patch-clamp (Q-Patch HTX), slow inactivated state (state C). The format is cell-based. As to conditions: hNaV1.2 CHO cells, slow inactivated state; for pIC50: read-out: NaV1.2 IC50; for inhibition at 1 µM: 1 μM compound, read-out: NaV1.2 (% inh), 1 μM. An excerpt: In vitro method for NaV1.2 inhibition assays: The methods utilized to assess the inhibitory activity of compounds on NaV1.2 were based on the methods described by Liu et al. [Liu Y, Beck E J, & Flores C M (2011): Validation of a patch clamp screening protocol that simultaneously measures compound activity in multiple states of the voltage-gated sodium channel Nav1.2. Assay Drug Development Technology 9, 628-634]. For these electrophysiology assays, a cell line (Chinese Hamster Ovarian K-1 cells (CHO K-1)) engineered to stably express human sodium channel NaV1.2 was purchased from Millipore Corporation (catalog no. CYL3023). The electrophysiology measurements were performed using automated patch-clamp methods on a Q-Patch HTX instrument by scientists at Evotec AG under contract with Sunovion.
The solutions utilized for the Qpatch experiments were similar buffered solutions to those described by Liu et al. [Liu Y, Beck E J, & Flores C M (2011)]. The extracellular solution contained 140 millimolar sodium chloride, 4 millimolar potassium chloride, 2 millimolar calcium chloride, 1 millimolar magnesium chloride, 10 millimolar 4-(2-hydroxyethyl)-1-piperazineethanesulfonic acid (HEPES), and 10 millimolar glucose (pH adjusted to 7.4 with sodium hydroxide). The intracellular solution contained 100 millimolar cesium fluoride, 45 millimolar cesium chloride, 10 millimolar HEPES, 5 millimolar ethylene glycol tetraacetic acid (EGTA), and 5 millimolar glucose (pH adjusted to 7.2 with cesium hydroxide).
The biophysical experiments of Lui et al. [Liu Y, Beck E J, & Flores C M (2011)] were replicated to assess the fast, slow and total inactivation characteristics of the human Nav1.2 channel
Based upon results from studies of the fast, slow and total inactivation characteristics of the human Nav1.2 channel, a voltage protocol involving a sequence of consecutive pulses of current was used to measure channel activity in several states [Liu Y, Beck E J, & Flores C M (2011)]. The monolayer of CHO K-1 cells stably expressing human sodium channel NaV1.2 (hNaV1.2 CHO cells) was maintained in the Qpatch instrument at a potential of −100 millivolts (mV) except when the voltage protocol was being executed. The first pulse in the protocol involved a 100 millisecond depolarization to 0 mV to enable measurement of channel availability in the closed state (state A). The potential was then maintained at −90 mV for 15 milliseconds, followed by a five millisecond period of depolarization to 0 mV to enable measurement of channel availability after partial recovery from fast inactivation (state B). Next, the potential was maintained at −90 mV for 300 milliseconds, followed by ten seconds at −50 mV, 15 milliseconds at −90 mV, and finally another five millisecond period of depolarization to 0 mV to enable measurement of channel availability after additional recovery from fast inactivation and significant entry into the slow inactivated state (state C). Finally, after an additional 300 millisecond period at −90 mV, another five millisecond period of depolarization to 0 mV was employed to enable measurement of channel availability after partial recovery from the slow inactivated state (state D). Measurements of activity at state C were used to assess the activity of the NaV1.2 channel in the slow inactivated state. Comparison of activity after addition of test compounds or reference compounds with activity after addition of vehicle only provided a measure of percent remaining activity from which percent inhibition was calculated. […] A slight modification of this protocol was utilized to provide measurements as a function of compound concentration, which enabled IC50 values to be determined. IC50 values were calculated by non-linear least squares regression of the data (percent inhibition of ion channel NaV1.2 activity in the slow inactivated state) onto equation (1): % inhibition=100%/(1+(IC50/[compound]) equation (1)
J Pharmacol Exp Ther. 2008 July; 326(1):89-99.].

The target of test [2] is T1, recombinant human serotonin receptor 5-HT2A (Homo sapiens, UniProt P28223).
T1 construct: expressed in transfected cells; method B: loaded with Ca2+ dye
T1 sequence (P28223 whole entry): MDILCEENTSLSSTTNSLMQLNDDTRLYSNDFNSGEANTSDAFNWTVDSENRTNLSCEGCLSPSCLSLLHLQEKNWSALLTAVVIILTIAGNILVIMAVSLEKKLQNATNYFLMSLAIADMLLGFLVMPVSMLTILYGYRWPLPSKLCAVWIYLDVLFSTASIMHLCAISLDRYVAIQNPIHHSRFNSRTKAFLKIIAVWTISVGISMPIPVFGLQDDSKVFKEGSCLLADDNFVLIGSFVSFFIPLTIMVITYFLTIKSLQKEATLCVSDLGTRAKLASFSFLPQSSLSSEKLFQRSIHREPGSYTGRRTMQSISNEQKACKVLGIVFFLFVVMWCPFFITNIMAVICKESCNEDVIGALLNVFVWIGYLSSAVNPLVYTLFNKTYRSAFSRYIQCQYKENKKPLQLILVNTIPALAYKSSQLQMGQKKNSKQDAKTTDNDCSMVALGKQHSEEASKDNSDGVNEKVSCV
Briefly: 5-HT2A antagonist Ca2+ assay in CHO-K1 cells (method A aequorin luminescence / method B FLIPR fluorescence). The format is cell-based. Conditions: antagonist mode vs EC80 of reference agonist, method A or B, read-out: 5HT2A IC50. The method, boiled down: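 Method A: CHO-K1 cells co-expressing human 5-HT2A and mitochondrial apoaequorin were given reference agonist at EC80 15 min after compound, with luminescence read. Method B: dye-loaded 5-HT2A CHO-K1 cells were pretreated with compound, then given serotonin at EC80, with FLIPR fluorescence read. IC50s came from nonlinear fits of percent inhibition.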

SMILES strings stand for the structures. pIC50: −log10 of the molar value. Counter-ions that a name gives are not always drawn.

human sodium channel NaV1.2, sequence (Q99250 whole entry): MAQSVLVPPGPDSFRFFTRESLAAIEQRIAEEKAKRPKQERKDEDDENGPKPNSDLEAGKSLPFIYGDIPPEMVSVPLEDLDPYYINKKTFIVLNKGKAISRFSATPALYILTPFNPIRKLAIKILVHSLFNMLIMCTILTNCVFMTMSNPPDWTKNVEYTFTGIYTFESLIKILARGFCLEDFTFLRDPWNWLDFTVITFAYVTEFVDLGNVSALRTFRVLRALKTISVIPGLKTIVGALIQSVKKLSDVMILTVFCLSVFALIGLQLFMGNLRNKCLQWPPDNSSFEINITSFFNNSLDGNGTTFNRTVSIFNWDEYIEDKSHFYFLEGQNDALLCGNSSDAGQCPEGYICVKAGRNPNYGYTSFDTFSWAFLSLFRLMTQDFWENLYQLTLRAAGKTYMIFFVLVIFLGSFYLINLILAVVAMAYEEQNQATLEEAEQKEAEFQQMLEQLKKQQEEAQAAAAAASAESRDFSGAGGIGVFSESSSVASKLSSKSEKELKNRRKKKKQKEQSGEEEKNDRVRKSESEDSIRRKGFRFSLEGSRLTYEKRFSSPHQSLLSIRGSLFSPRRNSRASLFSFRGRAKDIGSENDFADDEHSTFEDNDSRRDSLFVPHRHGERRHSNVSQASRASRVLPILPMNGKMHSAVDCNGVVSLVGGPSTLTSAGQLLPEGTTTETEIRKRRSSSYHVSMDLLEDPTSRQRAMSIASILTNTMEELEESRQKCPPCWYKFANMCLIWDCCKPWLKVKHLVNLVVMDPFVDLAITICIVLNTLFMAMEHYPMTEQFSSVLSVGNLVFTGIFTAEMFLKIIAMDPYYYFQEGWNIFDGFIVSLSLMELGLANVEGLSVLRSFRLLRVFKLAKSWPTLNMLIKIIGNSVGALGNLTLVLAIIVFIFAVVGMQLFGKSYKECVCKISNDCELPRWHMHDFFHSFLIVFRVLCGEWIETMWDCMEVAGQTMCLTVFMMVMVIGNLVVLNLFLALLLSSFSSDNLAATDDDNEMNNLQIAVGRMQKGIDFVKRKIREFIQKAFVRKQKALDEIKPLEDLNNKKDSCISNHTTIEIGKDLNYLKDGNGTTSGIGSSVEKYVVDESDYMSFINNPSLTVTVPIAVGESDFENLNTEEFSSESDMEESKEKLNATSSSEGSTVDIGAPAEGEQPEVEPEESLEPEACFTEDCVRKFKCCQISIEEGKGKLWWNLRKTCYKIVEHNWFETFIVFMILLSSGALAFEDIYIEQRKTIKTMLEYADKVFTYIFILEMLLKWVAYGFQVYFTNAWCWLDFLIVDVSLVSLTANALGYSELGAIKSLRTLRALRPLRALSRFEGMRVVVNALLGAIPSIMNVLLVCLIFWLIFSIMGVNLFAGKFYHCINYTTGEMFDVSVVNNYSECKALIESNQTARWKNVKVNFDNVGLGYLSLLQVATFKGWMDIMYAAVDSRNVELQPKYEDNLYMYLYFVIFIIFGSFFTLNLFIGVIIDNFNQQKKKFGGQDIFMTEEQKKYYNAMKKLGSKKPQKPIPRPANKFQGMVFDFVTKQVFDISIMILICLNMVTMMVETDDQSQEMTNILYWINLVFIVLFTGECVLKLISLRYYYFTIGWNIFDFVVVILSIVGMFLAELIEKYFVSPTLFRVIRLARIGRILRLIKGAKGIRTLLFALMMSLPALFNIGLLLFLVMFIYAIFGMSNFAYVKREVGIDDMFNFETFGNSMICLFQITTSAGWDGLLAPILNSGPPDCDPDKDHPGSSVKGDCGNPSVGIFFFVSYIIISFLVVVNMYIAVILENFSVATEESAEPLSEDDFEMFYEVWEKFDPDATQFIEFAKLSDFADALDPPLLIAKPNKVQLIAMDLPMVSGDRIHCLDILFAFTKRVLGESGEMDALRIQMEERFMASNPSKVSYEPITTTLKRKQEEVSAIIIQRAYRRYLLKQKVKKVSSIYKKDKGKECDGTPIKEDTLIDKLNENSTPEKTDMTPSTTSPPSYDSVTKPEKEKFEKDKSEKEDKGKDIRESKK

A word on the pIC50: it is the negative decadic logarithm of the IC50, by convention in mol/L. `OC(COC1CCCCC1)CN1CCN(Cc2ccccc2)CC1` (stereo not shown) [Example 75, 1-(4-benzylpiperazin-1-yl)-3-(cyclohexyloxy)propan-2-ol]: in test [1] (10 μM compound, read-out: NaV1.2 (% inh), 10 μM), the inhibition at 10 µM turned out to be 21%. In addition, the pIC50 in test [2] is below 5.38.
Take `Cc1ccc(N2CCN(CC(O)COC3CCCCC3)CC2)cc1` (stereo not shown) [Example 76, 1-(cyclohexyloxy)-3-(4-(p-tolyl)piperazin-1-yl)propan-2-ol]: the pIC50 was 6.62 in test [1] and 7.70 in test [2].
As to `Cc1ccc(N2CCN(C[C@H](O)COC3CCCCC3)CC2)cc1` [Example 77, (S)-1-(cyclohexyloxy)-3-(4-(p-tolyl)piperazin-1-yl)propan-2-ol], the pIC50 in test [1] is 5.04; in test [2], 6.68.
On to `Cc1ccc(N2CCN(C[C@@H](O)COC3CCCCC3)CC2)cc1` [Example 78, (R)-1-(cyclohexyloxy)-3-(4-(p-tolyl)piperazin-1-yl)propan-2-ol], for which the pIC50 in test [1] was 5.33; in test [2], below 5.00.
In the same order, the values of `Cc1cccc(N2CCN(CC(O)COC3COc4ccccc43)CC2)c1C` (stereo not shown) [Example 80, 1-((2,3-dihydrobenzofuran-3-yl)oxy)-3-(4-(2,3-dimethylphenyl)piperazin-1-yl)propan-2-ol] are 6.77 and 7.22.
The matching figures for `Cc1cccc(N2CCN(CC(O)COC3(C)COc4ccccc43)CC2)c1C` (stereo not shown) [Example 81, 1-(4-(2,3-dimethylphenyl)piperazin-1-yl)-3-((3-methyl-2,3-dihydrobenzofuran-3-yl)oxy)propan-2-ol]: 6.80 and 7.52.
Turning to `Cc1cccc(N2CCN(CC(O)COC3COc4cccnc43)CC2)c1C` (stereo not shown) [Example 82, 1-((2,3-dihydrofuro[3,2-b]pyridin-3-yl)oxy)-3-(4-(2,3-dimethylphenyl)piperazin-1-yl)propan-2-ol], the pIC50 in test [1] is 5.87; in test [2] it was 7.40.
Regarding `OC(COC1CCCc2ccccc21)CN1CCN(Cc2ccccc2)CC1` (stereo not shown) [Example 83, 1-(4-benzylpiperazin-1-yl)-3-((1,2,3,4-tetrahydronaphthalen-1-yl)oxy) propan-2-ol], the figures for the negative logarithm of the IC50 (pIC50) in test [1] and in test [2] were 7.70 and 5.54, respectively.
As to `O[C@@H](CO[C@H]1CCCc2ccccc21)CN1CCN(Cc2ccccc2)CC1` [Example 85, (R)-1-(4-benzylpiperazin-1-yl)-3-(((S)-1,2,3,4-tetrahydronaphthalen-1-yl)oxy)propan-2-ol], in test [1], the inhibition at 1 µM was 24%. For the same compound, the pIC50 in test [2] was below 4.92.
Turning to `O[C@H](CO[C@H]1CCCc2ccccc21)CN1CCN(Cc2ccccc2)CC1` [Example 87, (S)-1-(4-benzylpiperazin-1-yl)-3-(((S)-1,2,3,4-tetrahydronaphthalen-1-yl)oxy)propan-2-ol], the inhibition at 1 µM in test [1] came out at 15%. In addition, the pIC50 in test [2] is 5.44.
On to `CCC(=O)c1ccc(OCC(O)CN2CCN(c3ccccc3)CC2)cc1` (stereo not shown) [Example 88, 1-(4-(2-hydroxy-3-(4-phenylpiperazin-1-yl)propoxy)phenyl)propan-1-one], for which the pIC50 in test [1] was 4.51; in test [2], 6.24.
The matching figures for `OC(COc1ccccc1)CN1CCN(c2cccc(Cl)c2)CC1` (stereo not shown) [Example 89, 1-(4-(3-chlorophenyl)piperazin-1-yl)-3-phenoxypropan-2-ol]: 6.36 and 7.15.
In the case of `CC(=O)Nc1ccc(OCC(O)CN2CCN(c3ccc(C)c(Cl)c3)CC2)cc1` (stereo not shown) [Example 90, N-(4-(3-(4-(3-chloro-4-methylphenyl)piperazin-1-yl)-2-hydroxypropoxy)phenyl)acetamide], the pIC50 is 4.23 in test [1] and 8.00 in test [2].
The matching figures for `Cc1ccccc1OCC(O)CN1CCC(c2nc3ccccc3s2)CC1` (stereo not shown) [Example 91, 1-(4-(benzo[d]thiazol-2-yl)piperidin-1-yl)-3-(o-tolyloxy)propan-2-ol]: 6.77 and 7.70.
Consider `COc1ccccc1N1CCN(CC(O)COc2cccc3ccccc23)CC1` (stereo not shown) [Example 92, 1-(4-(2-methoxyphenyl)piperazin-1-yl)-3-(naphthalen-1-yloxy)propan-2-ol], for which the pIC50 is 8.00 in test [1] and 6.64 in test [2].
For `COc1ccc2c(c1)C(CN1CCC(Oc3ccccn3)CC1)CC2` (stereo not shown) [Example 95, 2-((1-((6-methoxy-2,3-dihydro-1H-inden-1-yl)methyl)piperidin-4-yl)oxy)pyridine], the inhibition at 1 µM in test [1] turned out to be 9%. In addition, in test [2], the pIC50 is 6.82.
In the case of `COc1ccc2c(c1)C(CN1CCC(Oc3ccccc3C#N)CC1)CC2` (stereo not shown) [Example 98, 2-((1-((6-methoxy-2,3-dihydro-1H-inden-1-yl)methyl)piperidin-4-yl)oxy)benzonitrile], the inhibition at 1 µM in test [1] amounted to 37%. In test [2], the pIC50 was 8.00.
For `COc1ccccc1OC1CCN(CC2c3ccccc3CC2(C)C)CC1` (stereo not shown) [Example 100], the pIC50 in test [1] was 5.59; in test [2], 6.15.
In the same order, the values of `COc1ccccc1OC1CCN(CC2c3ccccc3CC2C)CC1` (stereo not shown) [Example 101, 4-(2-methoxyphenoxy)-1-((2-methyl-2,3-dihydro-1H-inden-1-yl)methyl)piperidine] are 6.43 and 7.10.
In the case of `COc1ccc2c(c1)C(CN1CC[C@@H](Oc3ccccc3OC)C[C@@H]1C)CC2` (stereo partly drawn) [Example 102, (2S,4R)-1-((6-methoxy-2,3-dihydro-1H-inden-1-yl)methyl)-4-(2-methoxyphenoxy)-2-methylpiperidine], the inhibition at 1 µM in test [1] is 82%. Besides, the pIC50 in test [2] is 6.82.
On to `COc1ccccc1OC1CCN(CC2CCc3ccccc32)CC1(C)C` (stereo not shown) [Example 103, 1-((2,3-dihydro-1H-inden-1-yl)methyl)-4-(2-methoxyphenoxy)-3,3-dimethylpiperidine], for which the pIC50 was 5.50 in test [1] and 6.66 in test [2].
For the compound `COc1ccc2c(c1)C(CN1CC[C@H](Oc3ccccc3OC)C[C@@H]1C)CC2` (stereo partly drawn) [Example 104, (2S,4S)-1-((6-methoxy-2,3-dihydro-1H-inden-1-yl)methyl)-4-(2-methoxyphenoxy)-2-methylpiperidine], the inhibition at 1 µM in test [1] is 46%. In addition, the pIC50 in test [2] was 6.59.
On to `c1ccc(OC2CCN(CC3CCc4ccccc43)CC2)cc1` (stereo not shown) [Example 106, 1-((2,3-dihydro-1H-inden-1-yl)methyl)-4-phenoxypiperidine], for which the figures for the pIC50 in test [1] and in test [2] were below 5.00 and 8.00, respectively.
In the same order, the values of `COc1ccc2c(c1)C(CN1CCC(Oc3ccccc3)CC1)CC2` (stereo not shown) [Example 107, 1-((6-methoxy-2,3-dihydro-1H-inden-1-yl)methyl)-4-phenoxypiperidine] are 5.70 and 8.40.
With `Fc1ccc(OC2CCN(CC3CCc4ccccc43)CC2)cc1` (stereo not shown) [Example 112, 1-((2,3-dihydro-1H-inden-1-yl)methyl)-4-(4-fluorophenoxy)piperidine], the figures for the pIC50 in test [1] and in test [2] were 5.84 and 8.40, respectively.
For `COc1ccc2c(c1)C(CN1CCC(Oc3ccc(F)cc3)CC1)CC2` (stereo not shown) [Example 113, 4-(4-fluorophenoxy)-1-((6-methoxy-2,3-dihydro-1H-inden-1-yl)methyl)piperidine hydrochloride], the pIC50 in test [1] was 6.26; in test [2], 8.70.
